The source of these data is patent publication US20240034736A1, “HSD17B13 INHIBITORS AND USES THEREOF” (FL2022-001, Inc., priority 2020, published 2024).

pIC50: −log10 of the molar value.

Recombinant human HSD17B13 enzyme, sequence (Q7Z5P4 20-300): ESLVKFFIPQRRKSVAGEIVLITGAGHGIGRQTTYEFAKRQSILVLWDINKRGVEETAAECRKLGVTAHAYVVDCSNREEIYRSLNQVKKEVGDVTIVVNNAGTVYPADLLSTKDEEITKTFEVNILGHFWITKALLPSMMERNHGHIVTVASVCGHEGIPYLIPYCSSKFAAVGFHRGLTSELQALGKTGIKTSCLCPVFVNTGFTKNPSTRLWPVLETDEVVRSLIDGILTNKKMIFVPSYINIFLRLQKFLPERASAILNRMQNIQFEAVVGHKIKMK

For the test, the target named is Recombinant human HSD17B13 enzyme (Homo sapiens (Human), UniProt Q7Z5P4). The experiment in a line: HSD17b13 NAD(P)H-Glo Biochemical Assay. The conditions noted are these: 50 uM estradiol, 1 mM NAD+; read-out: HSD17β13 IC50. As to the method:
Recombinant human HSD17B13 enzyme. Substrate: estradiol (Sigma β-Estradiol E8875), 100 mM in DMSO. […] Assay buffer final concentration: 20 mM Tris pH7.4 with 0.002% Tween-20 and 0.02% BSA. […] Enzymatic activity detected by NAD(P)H-Glo™ Detection System (Promega G9062).
Inhibitor compounds were serially diluted in DMSO and then further diluted in assay buffer to a 10× concentration consisting of 1% DMSO.
HSD17b13 enzyme was diluted in 1× assay buffer to the desired enzyme concentration based on the specific activity of the enzyme lot. 20 uL of diluted enzyme was added to each well along with 2.5 uL of 10× inhibitor solution. Assay plate was incubated at RT for 20 minutes, and then 2.5 uL of a 10× substrate/cofactor mix was added to each well for a final concentration of 50 uM estradiol and 1 mMNAD+. Assay plate was incubated at 37° C. for 3 hours. NAD(P)H-Glo™ Detection System reagents were prepared according to manufacturer's specifications, and 25 uL was added to each well. After incubating for 1 hour at RT, luminescence was measured.
Consider `Oc1ccc(-c2cc3cnn(-c4cc(O)c(F)c(F)c4)c3cc2Cl)c(Cl)c1` [Compound 4.17, 5-(6-Chloro-5-(2-chloro-4-hydroxyphenyl)-1H-indazol-1-yl)-2,3-difluorophenol], for which the negative-log IC50 (pIC50) (in general, the IC50 on a negative log10 scale, so that one unit is a factor of ten) was 6.00 to 7.00.
For the compound `Oc1cc(-n2ncc3cc(-c4ccc(O)c(Cl)c4)ccc32)ccc1F` [Compound 5, 2-Chloro-4-(1-(4-fluoro-3-hydroxyphenyl)-1H-indazol-5-yl)phenol], the negative-log IC50 (pIC50) is 6.00 to 7.00.
Under `Oc1cc(-n2ncc3cc(-c4ccc(Cl)c(O)c4)ccc32)ccc1F` [Compound 5.01, 2-Chloro-5-(1-(4-fluoro-3-hydroxyphenyl)-1H-indazol-5-yl)phenol] stands 6.00 to 7.00; under `Cc1cc(-c2ccc3c(cnn3-c3ccc(F)c(O)c3)c2)ccc1O` [Compound 5.02, 4-(1-(4-Fluoro-3-hydroxyphenyl)-1H-indazol-5-yl)-2-methylphenol], 6.00 to 7.00.
Then `COc1ccc(-c2ccc3c(cnn3-c3ccc(F)c(O)c3)c2)c(Cl)c1` [Compound 5.03, 5-(5-(2-Chloro-4-methoxyphenyl)-1H-indazol-1-yl)-2-fluorophenol], with 6.00 to 7.00; and `NS(=O)(=O)c1ccc(-c2ccc3c(cnn3-c3ccc(F)c(O)c3)c2)cc1` [Compound 5.04, 4-(1-(4-Fluoro-3-hydroxyphenyl)-1H-indazol-5-yl)benzenesulfonamide], with 6.00 to 7.00.
Under `CS(=O)(=O)c1ccc(-c2ccc3c(cnn3-c3ccc(F)c(O)c3)c2)cc1` [Compound 5.05, 2-Fluoro-5-(5-(4-(methylsulfonyl)phenyl)-1H-indazol-1-yl)phenol] stands 6.00 to 7.00; under `Oc1cc(-n2ncc3cc(-c4ccc(OC(F)(F)F)cc4Cl)ccc32)ccc1F` [Compound 5.06, 5-(5-(2-Chloro-4-(trifluoromethoxy)phenyl)-1H-indazol-1-yl)-2-fluorophenol], 6.00 to 7.00; under `N#Cc1cc(O)ccc1-c1ccc2c(cnn2-c2ccc(F)c(O)c2)c1` [Compound 5.07, 2-(1-(4-Fluoro-3-hydroxyphenyl)-1H-indazol-5-yl)-5-hydroxybenzonitrile], 6.00 to 7.00.
For the compound `Oc1cc(-n2ncc3cc(-c4ccc(OC(F)F)cc4Cl)ccc32)ccc1F` [Compound 5.08, 5-(5-(2-Chloro-4-(difluoromethoxy)phenyl)-1H-indazol-1-yl)-2-fluorophenol], the pIC50 is 6.00 to 7.00.
For `Oc1cc(-n2ncc3cc(-c4ccc(N5CCOCC5)cc4Cl)ccc32)ccc1F` [Compound 5.09, 5-(5-(2-Chloro-4-morpholinophenyl)-1H-indazol-1-yl)-2-fluorophenol], the pIC50 is 4.52 to 6.00.
Then `CN(C)C(=O)c1ccc(-c2ccc3c(cnn3-c3ccc(F)c(O)c3)c2)c(Cl)c1` [Compound 5.10, 3-Chloro-4-(1-(4-fluoro-3-hydroxyphenyl)-1H-indazol-5-yl)-N,N-dimethylbenzamide], with 6.00 to 7.00.
For `N#Cc1ccc(-c2ccc3c(cnn3-c3ccc(F)c(O)c3)c2)c(Cl)c1` [Compound 5.11, 3-Chloro-4-(1-(4-fluoro-3-hydroxyphenyl)-1H-indazol-5-yl)benzonitrile], the pIC50 is 6.00 to 7.00.
Under `OCc1ccc(-c2ccc3c(cnn3-c3ccc(F)c(O)c3)c2)c(Cl)c1` [Compound 5.12, 5-(5-(2-Chloro-4-(hydroxymethyl)phenyl)-1H-indazol-1-yl)-2-fluorophenol] stands 6.00 to 7.00; under `CNS(=O)(=O)c1ccc(-c2ccc3c(cnn3-c3ccc(F)c(O)c3)c2)cc1` [Compound 5.13, 4-(1-(4-Fluoro-3-hydroxyphenyl)-1H-indazol-5-yl)-N-methylbenzenesulfonamide], 6.00 to 7.00.
Under `CS(=O)(=O)Nc1ccccc1-c1ccc2c(cnn2-c2ccc(F)c(O)c2)c1` [Compound 5.14, N-(2-(1-(4-Fluoro-3-hydroxyphenyl)-1H-indazol-5-yl)phenyl)methanesulfonamide] stands 4.52 to 6.00; under `Oc1cc(-n2ncc3cc(-c4ccc(C(F)F)cc4)ccc32)ccc1F` [Compound 5.15, 5-(5-(4-(Difluoromethyl)phenyl)-1H-indazol-1-yl)-2-fluorophenol], 6.00 to 7.00; under `Oc1ccc(-c2ccc3c(cnn3-c3ccc(F)c(O)c3)c2)c(C(F)(F)F)c1` [Compound 5.16, 2-Fluoro-5-(5-(4-hydroxy-2-(trifluoromethyl)phenyl)-1H-indazol-1-yl)phenol], 6.00 to 7.00.
For the compound `Cc1n[nH]c(C)c1-c1ccc2c(cnn2-c2ccc(F)c(O)c2)c1` [Compound 5.17, 5-(5-(3,5-Dimethyl-1H-pyrazol-4-yl)-1H-indazol-1-yl)-2-fluorophenol], the negative-log IC50 (pIC50) is 6.00 to 7.00.
Under `CC(=O)Nc1ccc(-c2ccc3c(cnn3-c3ccc(F)c(O)c3)c2)c(Cl)c1` [Compound 5.18, N-(3-Chloro-4-(1-(4-fluoro-3-hydroxyphenyl)-1H-indazol-5-yl)phenyl)acetamide] stands 6.00 to 7.00; under `Cc1cc(O)ccc1-c1ccc2c(cnn2-c2ccc(F)c(O)c2)c1` [Compound 5.19, 2-Fluoro-5-(5-(4-hydroxy-2-methylphenyl)-1H-indazol-1-yl)phenol], 6.00 to 7.00.
Under `COc1ccccc1-c1ccc2c(cnn2-c2ccc(F)c(O)c2)c1` [Compound 5.20, 2-Fluoro-5-(5-(2-methoxyphenyl)-1H-indazol-1-yl)phenol] stands 6.00 to 7.00; under `COc1cccc(-c2ccc3c(cnn3-c3ccc(F)c(O)c3)c2)c1` [Compound 5.21, 2-Fluoro-5-(5-(3-methoxyphenyl)-1H-indazol-1-yl)phenol], 4.52 to 6.00; under `COc1ccc(-c2ccc3c(cnn3-c3ccc(F)c(O)c3)c2)cc1` [Compound 5.22, 2-Fluoro-5-(5-(4-methoxyphenyl)-1H-indazol-1-yl)phenol], 6.00 to 7.00.
Under `O=C(O)c1ccccc1-c1ccc2c(cnn2-c2ccc(F)c(O)c2)c1` [Compound 5.23, 2-(1-(4-Fluoro-3-hydroxyphenyl)-1H-indazol-5-yl)benzoic acid] stands 4.52 to 6.00.
As to `O=C(O)c1cccc(-c2ccc3c(cnn3-c3ccc(F)c(O)c3)c2)c1` [Compound 5.24, 3-(1-(4-Fluoro-3-hydroxyphenyl)-1H-indazol-5-yl)benzoic acid], the negative logarithm of the IC50 (pIC50) was 4.52 to 6.00.
Then `CN(C)S(=O)(=O)c1ccc(-c2ccc3c(cnn3-c3ccc(F)c(O)c3)c2)cc1` [Compound 5.25, 4-(1-(4-Fluoro-3-hydroxyphenyl)-1H-indazol-5-yl)-N,N-dimethylbenzenesulfonamide], with 6.00 to 7.00.
Under `CNC(=O)c1ccc(-c2ccc3c(cnn3-c3ccc(F)c(O)c3)c2)c(Cl)c1` [Compound 5.26, 3-Chloro-4-(1-(4-fluoro-3-hydroxyphenyl)-1H-indazol-5-yl)-N-methylbenzamide] stands 6.00 to 7.00; under `Oc1ccc(-c2ncc3c(cnn3-c3ccc(F)c(O)c3)n2)c(Cl)c1` [Compound 5.27, 5-(5-(2-Chloro-4-hydroxyphenyl)-1H-pyrazolo[4,3-d]pyrimidin-1-yl)-2-fluorophenol], 6.00 to 7.00; under `Oc1cc(-n2ncc3nc(-c4ccc(O)c(Cl)c4)ncc32)ccc1F` [Compound 5.28, 2-Chloro-4-(1-(4-fluoro-3-hydroxyphenyl)-1H-pyrazolo[4,3-d]pyrimidin-5-yl)phenol], 4.52 to 6.00.
Then `O=C(O)COc1ccc(-c2ccc3c(cnn3-c3ccc(F)c(O)c3)c2)cc1` [Compound 5.29, 2-(4-(1-(4-Fluoro-3-hydroxyphenyl)-1H-indazol-5-yl)phenoxy)acetic acid], with 4.52 to 6.00; and `Oc1cc(-c2noc3cc(-c4ccc(O)c(Cl)c4)ccc23)ccc1F` [Compound 5.30, 2-Chloro-4-(3-(4-fluoro-3-hydroxyphenyl)benzo[d]isoxazol-6-yl)phenol], with 6.00 to 7.00.
As to `N#Cc1ccccc1-c1ccc2c(cnn2-c2ccc(F)c(O)c2)c1` [Compound 6, 2-(1-(4-Fluoro-3-hydroxyphenyl)-1H-indazol-5-yl)benzonitrile], the pIC50 was 6.00 to 7.00.
Consider `N#Cc1cccc(-c2ccc3c(cnn3-c3ccc(F)c(O)c3)c2)c1` [Compound 6.01, 3-(1-(4-Fluoro-3-hydroxyphenyl)-1H-indazol-5-yl)benzonitrile], for which the pIC50 was 6.00 to 7.00.
Consider `Oc1cc(-n2ncc3cc(-c4cncc(Cl)c4)ccc32)cc(F)c1F` [Compound 7, 5-(5-(5-Chloropyridin-3-yl)-1H-indazol-1-yl)-2,3-difluorophenol], for which the pIC50 was 6.00 to 7.00.
As for `COc1ccc(-c2ccc3c(cnn3-c3cc(O)c(F)c(F)c3)c2)cn1` [Compound 7.01, 2,3-Difluoro-5-(5-(6-methoxypyridin-3-yl)-1H-indazol-1-yl)phenol], the pIC50 was 6.00 to 7.00.
Then `Cc1ccc(-c2ccc3c(cnn3-c3cc(O)c(F)c(F)c3)c2)cn1` [Compound 7.02, 2,3-Difluoro-5-(5-(6-methylpyridin-3-yl)-1H-indazol-1-yl)phenol], with 6.00 to 7.00; and `Oc1cncc(-c2ccc3c(cnn3-c3cc(O)c(F)c(F)c3)c2)c1` [Compound 7.03, 5-(1-(3,4-Difluoro-5-hydroxyphenyl)-1H-indazol-5-yl)pyridine-3-ol], with 6.00 to 7.00; and `Oc1cc(-n2ncc3cc(-c4cncc(F)c4)ccc32)cc(F)c1F` [Compound 7.04, 2,3-Difluoro-5-(5-(5-fluoropyridin-3-yl)-1H-indazol-1-yl)phenol], with 6.00 to 7.00.
For the compound `Oc1ccc(-c2ccc3c(cnn3-c3ccc(F)c(O)c3F)c2)cc1Cl` [Compound 8, 3-(5-(3-Chloro-4-hydroxyphenyl)-1H-indazol-1-yl)-2,6-difluorophenol], the negative logarithm of the IC50 (pIC50) was 6.00 to 7.00.
